Patent publication US20210283110A1, “COMPOUND FOR USE IN THE TREATMENT OF A DISEASE CHARACTERIZED BY DYSREGULATED MUCUS PRODUCTION AND/OR SECRETION” (UNIVERSITÄT REGENSBURG, priority 2018, published 2021)

Legend:
[1] = test system: Calu3 human airway epithelial cells; test: IL-13 induced MUC5AC expression in Calu3 cells; type: cell-based; details: IL-13 stimulation
Description: Mouse models were performed according to the previous example. For investigating mucus, IL-8 release, and leukocytes, tissues were fixed using 4% paraformaldehyde (PFA), 0.2% picric acid and 3.4% sucrose in PBS and washed in methanol before embedding in paraffin. Mucus was analyzed using standard Periodic acid-Schiff (PAS) or alcian blue staining. MUC5AC was stained using anti-MUC5AC mouse antibody (1:200, Abcam, ab3649) and a secondary antibody conjugated with Alexa488 (Life Technologies, A-21206). Nuclei were stained with Hoe33342 (0.1 μg/ml PBS, Aplichem, Darmstadt, Germany). Quantikine ELISA kits (R&D systems) were used to measure secretion of the cytokine IL-8 by Calu3 cells.
Calu3 airway epithelial cells were exposed to LPS for 48 hrs and the release of the neutrophil attractor interleukin 8 (IL-8) was measured. […] Upon stimulation with the Th2 cytokine IL-13, Calu3 cells produced MUC5AC. […] Taken together, airway epithelial knockout of TMEM16A caused a defect in mucus secretion, while mucus production was retained (FIG. 16C).

excised wt colon = test: Acute mucus secretion in in vitro perfused excised colon, niclosamide in perfusate; set-up: species or system mouse; details: niclosamide 10 μM in perfusate
Text: Cholinergic stimulation released mucus from freshly isolated TMEM16A+/+ and TMEM16A−/− intestine (FIG. 6D-F). Mucus release was examined in more detail by perfusing freshly excised colon and collecting released mucus in vitro. For in vitro perfusion of intestines, mice were sacrificed and excised intestines were placed immediately in ice-cold Ringer solution and carefully flushed to remove residual luminal contents. The intestinal segments were mounted and perfused vertically in a custom-designed perfusion chamber with a constant temperature.
It was examined whether TMEM16F is also important for intestinal mucus secretion and acute mucus release was measured in freshly excised colonic segments mounted in a vertical custom-designed perfusion chamber at 37° C. and 24 mmol/1 HCO3^−/5% CO2. Secretion of mucus was induced by basolateral perfusion with methacholine (MCh) and by luminal perfusion of ATP. […]
It was examined whether niclosamide inhibits intestinal mucus secretion. […] The present inventors detected reduced Ca^2+ increase upon ATP-stimulation of freshly isolated crypt cells from Vil1-Cre TMEM16F^flox/flox mice. […] Increase in FM4-64 fluorescence in the plasma membrane is a marker for membrane exocytosis. The present inventors detected that ATP-stimulation (but not cholinergic stimulation) of HEK293 cells expressing TMEM16F induced FM4-64 fluorescence, i.e. exocytosis.

TMEM16A [2] = target: T1, TMEM16A (Homo sapiens, UniProt Q5XXA6); set-up: expressed in transfected cells; host or cells: HEK293 cells; details: Miner et al. [3]; cited from earlier work
T1 sequence (Q5XXA6 1-986): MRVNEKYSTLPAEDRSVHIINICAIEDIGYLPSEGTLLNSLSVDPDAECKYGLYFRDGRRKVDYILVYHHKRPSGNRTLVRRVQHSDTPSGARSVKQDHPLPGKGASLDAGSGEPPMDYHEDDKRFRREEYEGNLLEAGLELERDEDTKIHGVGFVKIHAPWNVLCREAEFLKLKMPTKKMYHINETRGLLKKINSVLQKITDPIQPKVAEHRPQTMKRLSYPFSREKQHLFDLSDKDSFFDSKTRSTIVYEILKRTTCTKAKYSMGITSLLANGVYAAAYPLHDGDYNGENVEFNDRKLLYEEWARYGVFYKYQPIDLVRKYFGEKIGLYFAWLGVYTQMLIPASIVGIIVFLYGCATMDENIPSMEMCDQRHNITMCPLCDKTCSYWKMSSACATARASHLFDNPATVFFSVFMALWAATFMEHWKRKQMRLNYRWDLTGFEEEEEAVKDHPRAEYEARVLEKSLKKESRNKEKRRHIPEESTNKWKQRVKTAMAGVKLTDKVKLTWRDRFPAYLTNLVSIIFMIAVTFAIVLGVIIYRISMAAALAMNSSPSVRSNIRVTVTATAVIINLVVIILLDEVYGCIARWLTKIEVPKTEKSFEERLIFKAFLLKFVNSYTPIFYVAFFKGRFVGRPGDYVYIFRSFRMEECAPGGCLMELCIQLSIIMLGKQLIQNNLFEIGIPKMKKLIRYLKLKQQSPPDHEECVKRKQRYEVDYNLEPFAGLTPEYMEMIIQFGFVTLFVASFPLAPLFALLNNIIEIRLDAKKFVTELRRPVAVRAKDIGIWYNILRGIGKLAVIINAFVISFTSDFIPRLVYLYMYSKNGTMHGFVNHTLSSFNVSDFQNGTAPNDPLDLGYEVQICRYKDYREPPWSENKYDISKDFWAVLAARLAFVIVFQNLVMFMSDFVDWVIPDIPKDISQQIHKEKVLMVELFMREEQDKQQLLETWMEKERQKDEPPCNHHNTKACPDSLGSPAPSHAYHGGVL

[3] = test system: mice homozygous for the cystic fibrosis mutation CFTR^deltaF508/deltaF508; type: in vivo; details: 13 mg/kg/day intraperitoneally for 7 days, in corn oil; vs sham
Description: Animals were treated for 7 days and subsequently sacrificed. Jejunum was excised, fixed in Carnoy Solution and embedded in paraffin.

TMEM16A [4] = target: T1, TMEM16A; test: ATP-induced current in HT29 cells expressing TMEM16A, patch clamp; type: cell-based; set-up: expressed in transfected cells; details: 1 μM compound applied simultaneously with ATP (wo μM), #p<0.01
Text: FIG. 2: ATP-induced current in HT29 cells expressing TMEM16A in an electrophysiological patch clamp investigation.
ATP was applied at a concentration of wo μM.

In the case of `O=C(Nc1ccc([N+](=O)[O-])cc1Cl)c1cc(Cl)ccc1O` [niclosamide, 5-chloro-N-(2-chloro-4-nitrophenyl)-2-hydroxybenzamide], the Muc5AC-expression [1] is reported as “largely reduced”, the “mucus secretion activated by basolateral MCh” value (excised wt colon) is reported as “not” and the “mucus secretion activated by luminal ATP” value (excised wt colon) is reported as “clearly inhibited”. The TMEM16A inhibition (TMEM16A [2]) was “inhibitors of TMEM16A”, the jejunal diameters [3] was “smaller” and the “mucus in jejunum (alcian blue)” value [3] was “largely reduced”. For the same compound, the “ATP-induced ion current arising from TMEM16A activation” value (TMEM16A [4]) was “significantly reduced”.
